Assay results: patent US20040018991A1, “Topical treatment for mastalgia” (priority 2000, published 2004)

Test: healing test: topical 4-hydroxy-androstenedione cream applied to the breasts of patients with mastalgia
Assay type: in vivo, human
Source text: Treatments acting with 4-hydroxy-androstenedione for mastalgia syndrome are described, wherein instead of 4-hydroxy-androstenedione, other aromatase inhibitors may be used.
Findings: Tension-related pains in both breasts occurring 3 to 5 days before each menstruation, apparently bundled shooting into the breast nipples. Then slowly decreasing pains, symptoms and signs and tension states during the menstruation period until about the 10th day after onset of menstruation.
A cream treated with 0.5 wt. % of 4-hydroxy-androstenedione was used (0.5% of 4OH-androstenedione introduced into 100 ml of ash-based cream). 4 g were administered daily, and specifically 2 g applied externally to each breast and carefully massaged in.
Start of healing test about 3 weeks before the period.
Continuation of the healing test with daily administration of 4-OH-androstenedione cream 0.5% strength.
Findings: For years, severe swelling and tension feeling occurring in each case 3-5 days before menstruation with diffuse pain symptoms and signs radiating into the thorax, which is almost unbearable until the onset of menstruation. For years, unable to work 1-3 days per month due to these pains. Disappearance of symptoms and signs only on 8th-12th day after onset of menstruation.
Healing test using 1% strength 4-OH-androstenedione cream (1 g of 4-OH-androstenedione introduced into 100 ml of ash-based cream).
Dose 1×daily 4 g, in each case 2 g applied to each breast.
The start of the healing test took place about 2 weeks before onset of menstruation.
Continuation of the healing test using 0.5% strength 4-OH-androstenedione cream (0.5 g of 4-OH-androstenedione introduced into 100 ml of ash-based cream) 4 g daily, that is 2 g applied to each breast.

[1] = Example 2, 1% strength cream, 1x daily 4 g, subsequent period 2
[2] = Example 2, continuation with 0.5% strength cream, 4 g daily, subsequent periods

**Q.** Which results are given for `C[C@]12CCC(=O)C(O)=C1CC[C@@H]1[C@@H]2CC[C@]2(C)C(=O)CC[C@@H]12` [4-hydroxy-androstenedione, 4-hydroxyandrostenedione]?
**A.** tension pain (Example 1, person, 0.5 wt. % cream, 4 g daily (2 g each breast), first subsequent period): Significantly reduced tension pain; pain (Example 1, 0.5% strength cream daily, second subsequent period): complete freedom from pain; course of symptoms and signs (Example 1, 0.5 wt. % cream, 4 g daily, first subsequent period): symptoms and signs subsided more rapidly; time to pain-free after start of menstruation (Example 1, 0.5 wt. % cream, 4 g daily, first subsequent period (before treatment until about the 10th day)): 5 days; course of mastalgia (Example 2, person, 1% strength cream, 1x daily 4 g, subsequent period 1): somewhat blander course; inability to work (Example 2, 1% strength cream, 1x daily 4 g, subsequent period 1 (before treatment 1-3 days per month)): 1 days; inability to work [1]: no inability to work; pain symptoms and signs [1]: considerably lower pain symptoms and signs; swelling and tension feeling [1]: Significantly lower swelling and tension feeling; mastopathy-related inability to work [2]: no mastopathy-related inability to work; pain [2]: practically pain-free; swelling and tension feelings [2]: Hardly any swelling and tension feelings
